Here are results for 13 molecules from patent US11304949B2, “Treatment of hidradenitis suppurativa using JAK inhibitors” (Incyte Corporation, priority 2018, dated 2022).

The target of assay [1] is human JAK1 (a.a. 837-1142) (Homo sapiens, UniProt P23458). In words: In vitro JAK kinase assay (HTRF), JAK1. To be noted: 1 mM ATP. Format: biochemical. In general terms: TR-FRET usually uses a lanthanide donor and a delayed reading to cut background.
The subject of assay [2] is human JAK1 (a.a. 837-1142). In words: In vitro JAK kinase assay (HTRF), JAK1. It is filed as biochemical. To be noted: IC50 ratio at 1 mM ATP.

As to `N#CC[C@]1(n2cc(-c3ncnc4[nH]ccc34)cn2)C[C@H](N2CCC(Oc3cc(CN4CC(O)C4)cc(C(F)(F)F)n3)CC2)C1` [Compound 11, {trans-3-(4-{[4-[(3-hydroxyazetidin-1-yl)methyl]-6-(trifluoromethyl)pyridin-2-yl]oxy}piperidin-1-yl)-1-[4-(7H-pyrrolo[2,3-d]pyrimidin-4-yl)-1H-pyrazol-1-yl]cyclobutyl}acetonitrile], in assay [1], the IC50 (in general, the concentration at which inhibition is half-maximal) is less than 10 nM. In addition, the JAK2/JAK1 in assay [2] is given as greater than 10.

Turning to `N#CC[C@]1(n2cc(-c3ncnc4[nH]ccc34)cn2)C[C@H](N2CCC(Oc3cc(CN4CCC[C@H]4CO)cc(C(F)(F)F)n3)CC2)C1` [Compound 12, {trans-3-(4-{[4-{[(2S)-2-(hydroxymethyl)pyrrolidin-1-yl]methyl}-6-(trifluoromethyl)pyridin-2-yl]oxy}piperidin-1-yl)-1-[4-(7H-pyrrolo[2,3-d]pyrimidin-4-yl)-1H-pyrazol-1-yl]cyclobutyl}acetonitrile], in assay [1], the IC50 is less than 10 nM. In addition, the JAK2/JAK1 in assay [2] is listed as greater than 10.

In assay [1], `N#CC[C@]1(n2cc(-c3ncnc4[nH]ccc34)cn2)C[C@H](N2CCC(Oc3cc(CN4CCC[C@@H]4CO)cc(C(F)(F)F)n3)CC2)C1` [Compound 13, {trans-3-(4-{[4-{[(2R)-2-(hydroxymethyl)pyrrolidin-1-yl]methyl}-6-(trifluoromethyl)pyridin-2-yl]oxy}piperidin-1-yl)-1-[4-(7H-pyrrolo[2,3-d]pyrimidin-4-yl)-1H-pyrazol-1-yl]cyclobutyl}acetonitrile] had an IC50 of less than 10 nM. Besides, the JAK2/JAK1 in assay [2] is reported as greater than 10.

On to `C[C@H](NC(=O)c1cc(F)c(N2CC(CC#N)(n3cc(-c4ncnc5[nH]ccc45)cn3)C2)cc1F)C(F)(F)F` [Compound 16, 4-{3-(cyanomethyl)-3-[4-(7H-pyrrolo[2,3-d]pyrimidin-4-yl)-1H-pyrazol-1-yl]azetidin-1-yl}-2,5-difluoro-N-[(1S)-2,2,2-trifluoro-1-methylethyl]benzamide], for which the half-inhibitory concentration (IC50) in assay [1] is less than 10 nM. In assay [2], the JAK2/JAK1 is greater than 10.

In assay [1], `N#CCC1(n2cc(-c3ncnc4[nH]ccc34)cn2)CN([C@H]2CC[C@@H](Oc3cc(CCO)nc(C(F)(F)F)n3)CC2)C1` [Compound 18, {1-(cis-4-{[6-(2-hydroxyethyl)-2-(trifluoromethyl)pyrimidin-4-yl]oxy}cyclohexyl)-3-[4-(7H-pyrrolo[2,3-d]pyrimidin-4-yl)-1H-pyrazol-1-yl]azetidin-3-yl}acetonitrile] showed an IC50 of less than 10 nM. Also, the JAK2/JAK1 in assay [2] is greater than 10.

`CCNCc1cc(O[C@H]2CC[C@@H](N3CC(CC#N)(n4cc(-c5ncnc6[nH]ccc56)cn4)C3)CC2)nc(C(F)(F)F)c1` [Compound 19, {1-(cis-4-{[4-[(ethylamino)methyl]-6-(trifluoromethyl)pyridin-2-yl]oxy}cyclohexyl)-3-[4-(7H-pyrrolo[2,3-d]pyrimidin-4-yl)-1H-pyrazol-1-yl]azetidin-3-yl}acetonitrile] returned an IC50 in assay [1] of less than 10 nM. Besides, the JAK2/JAK1 in assay [2] is greater than 10.

Consider `CC(C)(O)c1cc(O[C@H]2CC[C@@H](N3CC(CC#N)(n4cc(-c5ncnc6[nH]ccc56)cn4)C3)CC2)nc(C(F)(F)F)c1` [Compound 20, {1-(cis-4-{[4-(1-hydroxy-1-methylethyl)-6-(trifluoromethyl)pyridin-2-yl]oxy}cyclohexyl)-3-[4-(7H-pyrrolo[2,3-d]pyrimidin-4-yl)-1H-pyrazol-1-yl]azetidin-3-yl}acetonitrile], for which the IC50 in assay [1] is less than 10 nM. Besides, the JAK2/JAK1 in assay [2] is recorded as greater than 10.

Consider `N#CCC1(n2cc(-c3ncnc4[nH]ccc34)cn2)CN([C@H]2CC[C@@H](Oc3cc(CN4CC[C@@H](O)C4)cc(C(F)(F)F)n3)CC2)C1` [Compound 21, {1-(cis-4-{[4-{[(3R)-3-hydroxypyrrolidin-1-yl]methyl}-6-(trifluoromethyl)pyridin-2-yl]oxy}cyclohexyl)-3-[4-(7H-pyrrolo[2,3-d]pyrimidin-4-yl)-1H-pyrazol-1-yl]azetidin-3-yl}acetonitrile], for which the IC50 in assay [1] is less than 10 nM. In addition, the JAK2/JAK1 in assay [2] is greater than 10.

For `N#CCC1(n2cc(-c3ncnc4[nH]ccc34)cn2)CN([C@H]2CC[C@@H](Oc3cc(CN4CC[C@H](O)C4)cc(C(F)(F)F)n3)CC2)C1` [Compound 22, {1-(cis-4-{[4-{[(3S)-3-hydroxypyrrolidin-1-yl]methyl}-6-(trifluoromethyl)pyridin-2-yl]oxy}cyclohexyl)-3-[4-(7H-pyrrolo[2,3-d]pyrimidin-4-yl)-1H-pyrazol-1-yl]azetidin-3-yl}acetonitrile], the IC50 in assay [1] is less than 10 nM. Besides, in assay [2], the JAK2/JAK1 is listed as greater than 10.

With `C[C@@H](CO)NCc1cc(OC2CCN([C@H]3C[C@](CC#N)(n4cc(-c5ncnc6[nH]ccc56)cn4)C3)CC2)nc(C(F)(F)F)c1` [Compound 23, {trans-3-(4-{[4-({[(1S)-2-hydroxy-1-methylethyl]amino}methyl)-6-(trifluoromethyl)pyridin-2-yl]oxy}piperidin-1-yl)-1-[4-(7H-pyrrolo[2,3-d]pyrimidin-4-yl)-1H-pyrazol-1-yl]cyclobutyl}acetonitrile], in assay [1], the IC50 is less than 10 nM. In addition, the JAK2/JAK1 in assay [2] is reported as greater than 10.

As to `C[C@@H](O)CNCc1cc(OC2CCN([C@H]3C[C@](CC#N)(n4cc(-c5ncnc6[nH]ccc56)cn4)C3)CC2)nc(C(F)(F)F)c1` [Compound 24, {trans-3-(4-{[4-({[(2R)-2-hydroxypropyl]amino}methyl)-6-(trifluoromethyl)pyridin-2-yl]oxy}piperidin-1-yl)-1-[4-(7H-pyrrolo[2,3-d]pyrimidin-4-yl)-1H-pyrazol-1-yl]cyclobutyl}acetonitrile], in assay [1], the IC50 was less than 10 nM. Besides, the JAK2/JAK1 in assay [2] is given as greater than 10.

As to `C[C@H](O)CNCc1cc(OC2CCN([C@H]3C[C@](CC#N)(n4cc(-c5ncnc6[nH]ccc56)cn4)C3)CC2)nc(C(F)(F)F)c1` [Compound 25, {trans-3-(4-{[4-({[(2S)-2-hydroxypropyl]amino}methyl)-6-(trifluoromethyl)pyridin-2-yl]oxy}piperidin-1-yl)-1-[4-(7H-pyrrolo[2,3-d]pyrimidin-4-yl)-1H-pyrazol-1-yl]cyclobutyl}acetonitrile], in assay [1], the IC50 is less than 10 nM. In addition, the JAK2/JAK1 in assay [2] is recorded as greater than 10.

`N#CC[C@]1(n2cc(-c3ncnc4[nH]ccc34)cn2)C[C@H](N2CCC(Oc3cc(CCO)cc(C(F)(F)F)n3)CC2)C1` [Compound 26, {trans-3-(4-{[4-(2-hydroxyethyl)-6-(trifluoromethyl)pyridin-2-yl]oxy}piperidin-1-yl)-1-[4-(7H-pyrrolo[2,3-d]pyrimidin-4-yl)-1H-pyrazol-1-yl]cyclobutyl}acetonitrile] displayed an IC50 in assay [1] of less than 10 nM. Moreover, in assay [2], the JAK2/JAK1 was greater than 10.
